Legend:
Type in all cases: in vivo
non-diabetic db/m mice = assay: Body weight, blood biochemistry and 24-hour urine oxidative stress in non-diabetic db/m mice; conditions: adiporon 30 mg/kg/day in diet for 4 weeks, mean ± SD
Experimental: A leptin receptor-defective type 2 diabetic animal model (db/db mice) and a normal control group (db/m mice) were used, and the experiment was performed by dividing into 4 groups as follows: non-diabetic control group (dm cont, n=8), non-diabetic adiporon treatment group (dm+AdipoR, n=8), diabetic control group (db cont, n=8) and diabetic adiporon treatment group (db+AdipoR, n=8). The control group was fed a normal diet, and the adiporon treatment group was fed a diet comprising adiporon (30 mg/kg/day) for 4 weeks from 16 weeks of age. During the experiment, body weight was measured every week, fasting blood glucose was measured using an Accu-Chek meter (Roche Diagnostics, St. Louis, MO) every 2 weeks after blood was collected from the tail vein, and glycated hemoglobin (HbA1c) was measured every 4 weeks using a […] automatic analyzer (Bayer healthcare LLC, IN) after blood was collected from the tail vein. The temperature and humidity of the breeding room were maintained at 20˜25° C. and 50˜60%, respectively, and the lights were turned on and off at 12-hour intervals. In both experiments, blood collected from each mouse was allowed to stand at room temperature for 30 minutes, and then centrifuged at 3000 rpm for 15 minutes to obtain serum. Blood levels of tartrate-resistant acid phosphatase (TRAP/ACP5) and osterocalcin concentration were measured by ELISA. In addition, 8-hydroxy-deoxyguanosine, a DNA damage marker caused by oxidative stress, and isoprostane, a marker of oxidative stress caused by lipid peroxidation caused by free fatty acids, and deoxypyridinoline (DPP), which indicates the function of osteoclasts, were measured in 24-hour urine concentrations by ELISA method.

[1] = system: type 2 diabetic db/db mice; assay: Immunofluorescence staining and western blot of bone tissue, db/db mice; conditions: adiporon 30 mg/kg/day, 4 weeks
Experimental: A leptin receptor-defective type 2 diabetic animal model (db/db mice) and a normal control group (db/m mice) were used, and the experiment was performed by dividing into 4 groups as follows: non-diabetic control group (dm cont, n=8), non-diabetic adiporon treatment group (dm+AdipoR, n=8), diabetic control group (db cont, n=8) and diabetic adiporon treatment group (db+AdipoR, n=8).
The control group was fed a normal diet, and the adiporon treatment group was fed a diet comprising adiporon (30 mg/kg/day) for 4 weeks from 16 weeks of age. During the experiment, body weight was measured every week, fasting blood glucose was measured using an Accu-Chek meter (Roche Diagnostics, St. Louis, MO) every 2 weeks after blood was collected from the tail vein, and glycated hemoglobin (HbA1c) was measured every 4 weeks using a […] automatic analyzer (Bayer healthcare LLC, IN) after blood was collected from the tail vein. The temperature and humidity of the breeding room were maintained at 20˜25° C. and 50˜60%, respectively, and the lights were turned on and off at 12-hour intervals.
After removing tissues of the femur and L5 lumbar vertebrae, some of them were fixed in 10% formalin for immunostaining and decalcified. Thereafter, after neutralization with 0.5M Phosphate buffer (pH 7.4), washing, and embedding in paraffin. Tissue sections were cut to a thickness of 5 μm, and hematoxylin and eosin staining (H&E staining), trichrome staining, and Safranin O staining were performed. In bone tissue, double immunofluorescence staining method was performed using anti-adiponectin receptor 1/2 antibody, anti-perilipin-1 antibody, anti-RANKL antibody, anti-TNF-α antibody, and ApopTag Fluorescein In Situ Apoptosis Detection Kit (Chemicon International, Temecula, CA) and expression was observed using a confocal microscope.
(§1) Protein was extracted using Pro-Prep Protein Extraction Solution (Intron Biotechnology, Gyeonggi-Do, Korea), and SDS-PAGE (sodium dodecyl sulfate-polyacrylamide gel electrophoresis) was performed. The separated protein was transferred to a nitrocellulose membrane (Amersham Co., Buckinghamshire, England) and treated with Tris buffered saline (in TBS-T: 0.1% Tween-20 in Tris buffer saline, pH 7.5) containing 3% skim milk. After blocking for an hour, the blots were reacted in adiponectin receptor 1/2, total AMPK, phospho-Thr172AMPK, PGC-1α, Nrf-2, SOD1/2, NQO1, HO-1, NOX4, NF-κB and β-actin primary antibody solution, washing, reacting with a secondary antibody against each primary antibody, and then photosensitizing through ECL (Pierce, Rockford IL) to confirm the band. The expression level of each protein was normalized according to β-actin.

[2] = system: ovariectomized C57BL/6 mice; assay: Western blot of bone tissue, ovariectomized mice; conditions: for Decreased expression of adiponectin-receptor 1/2 (western blot): 6 weeks
Experimental: 7 weeks after ovariectomization or sham surgery of 7-week-old C57BL/6 mice, normal feed group (adiporon non-administered group; control group) administration group, 2.5 mg/kg day or 25 mg/kg day, respectively Feed comprising adiporon was consumed for 6 weeks from 14 weeks of age. Body weight was measured every week during the experiment period, and the experiment was conducted after 6 weeks of administration.
as §1

[3] = ilium (femur), adiporon 2.5 or 25 mg/kg day, dose not distinguished
[4] = vertebrae (lumbar vertebrae 5), adiporon 2.5 or 25 mg/kg day, dose not distinguished

**Q.** Which Blood glucose (non-diabetic db/m mice) does the source give for Cl.O=C(COc1ccc(C(=O)c2ccccc2)cc1)NC1CCN(Cc2ccccc2)CC1 [adiporon] here?
**A.** The Blood glucose was 136 ± 8 mg/dL.

**Q.** And the HbA1c (non-diabetic db/m mice)?
**A.** The HbA1c was 3.8 ± 0.2%.

**Q.** And the “Serum NEFA” value (non-diabetic db/m mice)?
**A.** Its value is 0.67 ± 0.23 mEq/I.

**Q.** What about the “Serum TC” value (non-diabetic db/m mice) of the same compound?
**A.** Its value is 2.5 ± 0.4 mmol/L.

**Q.** What about the “Serum TG” value (non-diabetic db/m mice) of the same compound?
**A.** Its value is 1.4 ± 0.2 mmol/L.

**Q.** What about the Serum adiponectin (non-diabetic db/m mice) of the same compound?
**A.** Its Serum adiponectin is 11214 ± 1214 ng/mL.

**Q.** What about the “Urinary 8-OHDG” value (non-diabetic db/m mice) of the same compound?
**A.** The value was 36.5 ± 14.5 ng/24 h.

**Q.** And the Urinary isoprostane (non-diabetic db/m mice)?
**A.** The Urinary isoprostane was 4.3 ± 2.2 ng/24 h.

**Q.** What about the “Activation of adiponectin-receptor 1-AMPK” value (“Activation” for short) ([1]; ilium (femur), db/db mice) of the same compound?
**A.** The value was “increased”.

**Q.** What about the “Decreased expression of adiponectin-receptor 1/2 (double immunofluorescence staining)” value ([1]; ilium (femur), db/db mice) of the same compound?
**A.** Its value is “restored”.

**Q.** And the “Expression of PGC1α” value ([1]; ilium (femur), db/db mice)?
**A.** The value was “increased”.

**Q.** What about the “Expression of adiponectin-receptor 2-PPARα” value ([1]; ilium (femur), db/db mice) of the same compound?
**A.** The value was “increased”.

**Q.** What about the “Expression of antioxidant enzymes (Nrf2, NQO1, HO-1, SOD1, SOD2)” value ([1]; ilium (femur), db/db mice) of the same compound?
**A.** The value was “normalized”.

**Q.** What about the “Expression of oxidative stress markers (NOX4, NFkB)” value ([1]; ilium (femur), db/db mice) of the same compound?
**A.** Its value is “normalized”.

**Q.** What about the “Increase in apoptosis (TUNEL staining-positive)” value ([1]; ilium (femur), db/db mice) of the same compound?
**A.** The value was “restored”.

**Q.** And the “Increase in inflammatory response (TNF-α)” value ([1]; ilium (femur), db/db mice)?
**A.** Its value is “restored”.

**Q.** What about the “Increase of adipocytes (perilipin-1 immunofluorescent staining)” value ([1]; ilium (femur), db/db mice) of the same compound?
**A.** Its value is “restored”.

**Q.** What about the “Increased expression of RANKL” value ([1]; ilium (femur), db/db mice) of the same compound?
**A.** The value was “restored”.

**Q.** And the “Activation” value ([1]; lumbar vertebrae 5, db/db mice)?
**A.** Its value is “increased”.

**Q.** And the “Decreased expression of adiponectin-receptor 1/2 (double immunofluorescence staining)” value ([1]; lumbar vertebrae 5, db/db mice)?
**A.** The value was “reversed”.

**Q.** What about the “Expression of PGC1α” value ([1]; lumbar vertebrae 5, db/db mice) of the same compound?
**A.** The value was “increased”.

**Q.** And the “Expression of adiponectin-receptor 2-PPARα” value ([1]; lumbar vertebrae 5, db/db mice)?
**A.** Its value is “increased”.

**Q.** And the “Expression of antioxidant enzymes (Nrf2, NQO1, HO-1, SOD1, SOD2)” value ([1]; lumbar vertebrae 5, db/db mice)?
**A.** Its value is “normalized”.

**Q.** And the “Expression of oxidative stress markers (NOX4, NFkB)” value ([1]; lumbar vertebrae 5, db/db mice)?
**A.** Its value is “normalized”.

**Q.** And the “Increase in apoptosis (TUNEL staining-positive)” value ([1]; lumbar vertebrae 5, db/db mice)?
**A.** Its value is “restored”.

**Q.** What about the “Increase in inflammatory response (TNF-α)” value ([1]; lumbar vertebrae 5, db/db mice) of the same compound?
**A.** Its value is “restored”.

**Q.** What about the “Increase of adipocytes (perilipin-1 immunofluorescent staining)” value ([1]; lumbar vertebrae 5, db/db mice) of the same compound?
**A.** Its value is “restored”.

**Q.** And the “Increased expression of RANKL” value ([1]; lumbar vertebrae 5, db/db mice)?
**A.** The value was “restored”.

**Q.** And the “Decreased expression of adiponectin-receptor 1/2 (western blot)” value (“Decreased expression … (western blot)” for short) ([2]; ilium (femur), adiporon 2.5 mg/kg day)?
**A.** The value was “restored”.

**Q.** What about the “Decreased expression … (western blot)” value ([2]; ilium (femur), adiporon 25 mg/kg day) of the same compound?
**A.** Its value is “restored”.

**Q.** And the “Activation” value [2, 3]?
**A.** The value was “increased”.

**Q.** And the “Expression of PGC-1α” value [2, 3]?
**A.** The value was “increased”.

**Q.** What about the “Expression of adiponectin-receptor 2-PPARα” value [2, 3] of the same compound?
**A.** The value was “increased”.

**Q.** And the “Decreased expression … (western blot)” value ([2]; vertebrae (lumbar vertebrae 5), adiporon 2.5 mg/kg day)?
**A.** Its value is “restored”.

**Q.** What about the “Decreased expression … (western blot)” value ([2]; vertebrae (lumbar vertebrae 5), adiporon 25 mg/kg day) of the same compound?
**A.** The value was “restored”.

**Q.** What about the “Activation” value [2, 4] of the same compound?
**A.** The value was “increased”.

**Q.** What about the “Expression of PGC1α” value [2, 4] of the same compound?
**A.** Its value is “increased”.

**Q.** And the “Expression of adiponectin-receptor 2-PPARα” value [2, 4]?
**A.** The value was “increased”.
